The source of these data is US20160039802A1, “3-PYRIMIDIN-4-YL-OXAZOLIDIN-2-ONES AS INHIBITORS OF MUTANT IDH” (NOVARTIS AG, priority 2013, published 2016).

SMILES strings stand for the structures. pIC50: −log10 of the molar value. Bounds are passed on as bounds.

The target of the first experiment is T1, IDH1 (R132H) mutant (Homo sapiens, UniProt O75874, R132H).
T1 construct: His6 with PreScission site (N, cleaved yes); made in house; host or cells: E. coli Rosetta 2(DE3)
T1 sequence (O75874 whole entry R132H): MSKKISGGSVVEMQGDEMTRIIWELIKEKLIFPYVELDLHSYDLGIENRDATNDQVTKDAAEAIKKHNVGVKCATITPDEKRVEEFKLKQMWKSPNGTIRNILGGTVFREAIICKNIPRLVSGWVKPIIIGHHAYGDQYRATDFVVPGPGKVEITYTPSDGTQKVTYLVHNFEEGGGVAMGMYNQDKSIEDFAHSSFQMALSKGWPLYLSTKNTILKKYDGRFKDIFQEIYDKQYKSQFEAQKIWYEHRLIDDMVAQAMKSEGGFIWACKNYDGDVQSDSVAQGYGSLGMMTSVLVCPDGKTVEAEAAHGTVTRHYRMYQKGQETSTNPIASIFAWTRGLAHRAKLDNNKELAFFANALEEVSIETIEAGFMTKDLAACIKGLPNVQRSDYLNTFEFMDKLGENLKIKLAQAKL
In words: Fluorescence biochemical assay (NADPH oxidation). To be noted: mIDH R132H 10 nM, 10 μM NADPH, 100 μM α-KG; range where run multiple times. As for the experimental part: The IDH1 (R132H) mutant catalyzes the reduced form of NADP+ (NADPH) and α-ketoglutarate (α-KG) to form nicotinamide adenine dinucleotide phosphate (NADP+) and R(−)-2-hydroxyglutarate (2HG). […] Reactions were monitored using the Perkin-Elmer Envision, Model 2101. […] The final reaction mixture contained 2.5% DMSO and test compounds with concentrations ranging 0.0000008-25 μM. The IDH1 (R132H) enzyme was used at a final concentration of 10 nM. Curve fitting for dose response […] determinations was done in the Helios module of the software package DAVID. The 4-parameter logistic model was used: y=min+((max−min)/1+(x/IC50)^shape)
In turn, `C[C@H](Nc1nccc(N2C(=O)OC[C@@H]2C2CC2)n1)c1ccccc1` [Example 23, (S)-4-cyclopropyl-3-(2-((S)-1-phenylethylamino)pyrimidin-4-yl)oxazolidin-2-one] showed a negative-log IC50 (pIC50) of 5.86.
`C[C@H](Nc1nccc(N2C(=O)OC[C@]2(C)C2CC2)n1)c1ccc(CN2CCC(N3CCOCC3)CC2)c(F)c1` [Example 67, (S)-4-cyclopropyl-3-(2-(((S)-1-(3-fluoro-4-((4-morpholinopiperidin-1-yl)methyl)phenyl)ethyl)amino)pyrimidin-4-yl)-4-methyloxazolidin-2-one] showed a pIC50 of 7.48.
In turn, `C[C@H](Nc1nccc(N2C(=O)OC[C@@H]2C2CC2)n1)c1cnc(OCC(F)(F)F)c(Cl)c1` [Example 25, (S)-3-(2-((S)-1-(5-chloro-6-(2,2,2-trifluoroethoxy)pyridin-3-yl)ethylamino)pyrimidin-4-yl)-4-cyclopropyloxazolidin-2-one] gave a pIC50 of 6.43.
Same read-out and setting: with `C[C@H](Nc1nc(Cl)cc(N2C(=O)OC[C@@H]2C2CC2)n1)c1cnn(-c2ccc(Cl)cc2)c1` [Example 5, (S)-3-(6-chloro-2-(((S)-1-(1-(4-chlorophenyl)-1H-pyrazol-4-yl)ethyl)amino)pyrimidin-4-yl)-4-cyclopropyloxazolidin-2-one] the figure was 7.48.
For the molecule `C[C@H](Nc1nccc(N2C(=O)OC[C@@H]2C2CC2)n1)c1cnc(-c2ccc(C(F)(F)F)nc2)s1` [Example 14, (S)-4-cyclopropyl-3-(2-(((S)-1-(2-(6-(trifluoromethyl)pyridin-3-yl)thiazol-5-yl)ethyl)amino)pyrimidin-4-yl)oxazolidin-2-one], the pIC50 is 7.31. The pIC50 values of the last two molecules are within 0.2 log units of each other.
Same read-out and setting: with `C[C@H](Nc1ncc(F)c(N2C(=O)OC[C@@H]2C2CC2)n1)c1nc(-c2ccc(Cl)cc2)no1` [Example 29, (S)-3-(2-((S)-1-(3-(4-chlorophenyl)-1,2,4-oxadiazol-5-yl)ethylamino)-5-fluoropyrimidin-4-yl)-4-cyclopropyloxazolidin-2-one] the figure was 6.91.
On to `C[C@H](Nc1nc(F)cc(N2C(=O)OC[C@@H]2C2CC2)n1)c1ccccc1` [Example 1, (S)-4-cyclopropyl-3-(6-fluoro-2-((S)-1-phenylethylamino)pyrimidin-4-yl)oxazolidin-2-one], for which the pIC50 is 6.44.
The same measure, in the same setting: with `C[C@H](Nc1nccc(N2C(=O)OC[C@@H]2C2CC2)n1)c1cnc(-c2ccnc(C(F)(F)F)c2)s1` [Example 15, (S)-4-cyclopropyl-3-(2-(((S)-1-(2-(2-(trifluoromethyl)pyridin-4-yl)thiazol-5-yl)ethyl)amino)pyrimidin-4-yl)oxazolidin-2-one] the figure was 6.97; with `C[C@H](Nc1ncc(F)c(N2C(=O)OC[C@@H]2C2CC2)n1)c1cnc(OCC(F)(F)F)c(Cl)c1` [Example 21, (S)-3-(2-((S)-1-(5-chloro-6-(2,2,2-trifluoroethoxy)pyridin-3-yl)ethylamino)-5-fluoropyrimidin-4-yl)-4-cyclopropyloxazolidin-2-one], 5.92.
The same measure, in the same setting: with `C[C@H](Nc1ncc(F)c(N2C(=O)OC[C@@H]2C2CC2)n1)c1ccccc1` [Example 24, (S)-4-cyclopropyl-3-(5-fluoro-2-((S)-1-phenylethylamino)pyrimidin-4-yl)oxazolidin-2-one] the figure was 5.92; with `C[C@H](Nc1nc(Cl)cc(N2C(=O)OC[C@@H]2C2CC2)n1)c1cnc(N2CCOCC2)s1` [Example 6, (S)-3-(6-chloro-2-(((S)-1-(2-morpholinothiazol-5-yl)ethyl)amino)pyrimidin-4-yl)-4-cyclopropyloxazolidin-2-one], 6.03; with `C[C@H](Nc1nc(Cl)cc(N2C(=O)OC[C@@H]2C2CC2)n1)c1cn(-c2ccc(Cl)cc2)cn1` [Example 26, (S)-3-(6-chloro-2-(((S)-1-(1-(4-chlorophenyl)-1H-imidazol-4-yl)ethyl)amino)pyrimidin-4-yl)-4-cyclopropyloxazolidin-2-one], 6.46.
Still for that read-out and setting: with `C[C@H](Nc1nc(Cl)cc(N2C(=O)OC[C@@H]2C2CC2)n1)c1nnc(-c2ccc(Cl)cc2)s1` [Example 4, (S)-3-(6-chloro-2-(((S)-1-(5-(4-chlorophenyl)-1,3,4-thiadiazol-2-yl)ethyl)amino)pyrimidin-4-yl)-4-cyclopropyloxazolidin-2-one] the figure was 7.61; with `C[C@H](Nc1nccc(N2C(=O)OC[C@@H]2C2CC2)n1)c1nc(-c2ccc(Cl)cc2)no1` [Example 28, (S)-3-(2-((S)-1-(3-(4-chlorophenyl)-1,2,4-oxadiazol-5-yl)ethylamino)pyrimidin-4-yl)-4-cyclopropyloxazolidin-2-one], 7.20; with `C[C@H](Nc1nccc(N2C(=O)OC[C@@H]2C2CC2)n1)c1ccc(CN2CCC(N(C)C)C(F)(F)C2)c(F)c1` (stereo partly drawn) [Example 69, (4S)-4-cyclopropyl-3-(2-(((1S)-1-(4-((4-(dimethylamino)-3,3-difluoropiperidin-1-yl)methyl)-3-fluorophenyl)ethyl)amino)pyrimidin-4-yl)oxazolidin-2-one], 7.60.
`Cc1cc(N2C(=O)OC[C@@H]2C2CC2)nc(N[C@H](C)c2cn(-c3ccc(Cl)cc3)nn2)n1` [Example 12, (S)-3-(2-(((R)-1-(1-(4-chlorophenyl)-1H-1,2,3-triazol-4-yl)ethyl)amino)-6-methylpyrimidin-4-yl)-4-cyclopropyloxazolidin-2-one] gave a pIC50 of 6.49.
Still for that read-out and setting: the figure for `C[C@H](Nc1nccc(N2C(=O)OC[C@]2(C)C2CC2)n1)c1ccc(CN2CCC(N3CCOCC3)CC2)cc1` [Example 68, (S)-4-cyclopropyl-4-methyl-3-(2-(((S)-1-(4-((4-morpholinopiperidin-1-yl)methyl)phenyl)ethyl)amino)pyrimidin-4-yl)oxazolidin-2-one] is 7.02; for `C[C@H](Nc1nccc(N2C(=O)OC[C@@H]2C2CC2)n1)c1ccn(-c2ccc(C(F)(F)F)nc2)n1` [Example 17, (S)-4-cyclopropyl-3-(2-(((S)-1-(1-(6-(trifluoromethyl)pyridin-3-yl)-1H-pyrazol-3-yl)ethyl)amino)pyrimidin-4-yl)oxazolidin-2-one] it is 6.77.
Still for that read-out and setting: with `C[C@H](Nc1ncc(F)c(N2C(=O)OC[C@@H]2C2CC2)n1)c1cnc(C(C)(F)F)c(Cl)c1` [Example 22, (S)-3-(2-((S)-1-(5-chloro-6-(1,1-difluoroethyl)pyridin-3-yl)ethylamino)-5-fluoropyrimidin-4-yl)-4-cyclopropyloxazolidin-2-one] the figure was 5.94; with `Cc1ccc(-c2ncc([C@H](C)Nc3nc(C)cc(N4C(=O)OC[C@@H]4C4CC4)n3)s2)cn1` [Example 13, (S)-4-cyclopropyl-3-(6-methyl-2-(((S)-1-(2-(6-methylpyridin-3-yl)thiazol-5-yl)ethyl)amino)pyrimidin-4-yl)oxazolidin-2-one], 6.72.
Same read-out and setting: the figure for `C[C@H](Nc1nc(Cl)cc(N2C(=O)OC[C@@H]2C2CC2)n1)c1ccccc1` [Example 2, (S)-3-(6-chloro-2-((S)-1-phenylethylamino)pyrimidin-4-yl)-4-cyclopropyloxazolidin-2-one] is 6.50; for `C[C@H](Nc1nccc(N2C(=O)OC[C@@H]2C2CC2)n1)c1cnc(-c2ccc(C(F)F)cc2)s1` [Example 16, (S)-4-cyclopropyl-3-(2-(((S)-1-(2-(4-(difluoromethyl)phenyl)thiazol-5-yl)ethyl)amino)pyrimidin-4-yl)oxazolidin-2-one] it is 7.53.

For a further experiment, the target named is T2, Mutant IDH1 R132H (Homo sapiens, UniProt O75874, R132H).
T2 construct: His6 with PreScission site (N, cleaved yes); made in house; host or cells: E. coli Rosetta 2(DE3)
T2 sequence (O75874 whole entry R132H): as above
Briefly: Mutant IDH1 biochemical assay: LC-MS detection of 2-HG. Further: mIDH R132H 0.25 nM, 5 µM NADPH. The conditions noted are these: mIDH R132H […], 5 uM NADPH, 100 uM alpha-KG, 45 minutes incubation; range where run multiple times. The source says:
Mutant IDH1 biochemical Sssay: LC-MS Detection of 2-HG.
With `C[C@H](Nc1nccc(N2C(=O)OC[C@]2(C)C2CC2)n1)c1ccc(CN2CCC(O)(C(F)(F)F)CC2)c(F)c1` [Example 32, (S)-4-cyclopropyl-3-(2-(((S)-1-(3-fluoro-4-((4-hydroxy-4-(trifluoromethyl)piperidin-1-yl)methyl)phenyl)ethyl)amino)pyrimidin-4-yl)-4-methyloxazolidin-2-one], the pIC50 was 7.88.
Same read-out and setting: with `C[C@H](Nc1nccc(N2C(=O)OCC2(C)C2CC2)n1)c1ccc(CN2CCN(C)C(C)(C)C2)cc1` (single isomer, unassigned) [Example 55] the figure was 7.11.
Regarding `C[C@H](Nc1nccc(N2C(=O)OC[C@]2(C)C2CC2)n1)c1ccc(CN2CCC(C)(N)CC2)c(F)c1` [Example 43, (S)-3-(2-(((S)-1-(4-((4-amino-4-methylpiperidin-1-yl)methyl)-3-fluorophenyl)ethyl)amino)pyrimidin-4-yl)-4-cyclopropyl-4-methyloxazolidin-2-one], the pIC50 was 6.82. This pIC50 is 0.29 log units lower than that of the molecule before.
Molecule `C[C@H](Nc1nccc(N2C(=O)OCC2(C)C2CC2)n1)c1ccc(CN2CCN(C)CC2)cc1` (single isomer, unassigned) [Example 47] gave a pIC50 of 6.15.
On to `CC(Nc1nccc(N2C(=O)OC[C@@]2(C)C2CC2)n1)c1nc(-c2ccc(Cl)cc2)no1` (single isomer, unassigned) [Example 51], for which the pIC50 is 5.49 to 5.50.
Molecule `Cc1cc(-c2cnc(C(C)Nc3nccc(N4C(=O)OC[C@]4(C)C4CC4)n3)nc2)ccc1F` (single isomer, unassigned) [Example 54] showed a pIC50 of less than 5.30.
`C[C@H](Nc1nccc(N2C(=O)OC[C@]2(C)C2CC2)n1)c1ccc(CN2CCC(C)(O)CC2)c(F)c1` [Example 31, (S)-4-cyclopropyl-3-(2-(((S)-1-(3-fluoro-4-((4-hydroxy-4-methylpiperidin-1-yl)methyl)phenyl)ethyl)amino)pyrimidin-4-yl)-4-methyloxazolidin-2-one] had a pIC50 of 6.57.

The pIC50 is the negative decadic logarithm of the IC50, by convention in mol/L.
